Counter-ions that a name gives are not always drawn.

The term melting point denotes the temperature, or range, at which the solid turns liquid.

In the case of `N#Cc1ccc(-c2ccc(OC(=O)N3CCN4CCC3CC4)cc2)cc1` (as salt: hydrochloride), the melting point is > 300 °C.

`O=C(Oc1ccccc1-c1nc2ccccc2s1)N1CCN2CCC1CC2` (as salt: hydrochloride) returned a melting point of 247.6 °C.

`O=C(Oc1ccc(Cc2ccccc2)cc1)N1CCN2CCC1CC2` (as salt: hydrochloride) came in with a melting point of 221.8 °C.

`COC(=O)c1ccc(OC(=O)N2CCN3CCC2CC3)cc1` (as salt: hydrochloride): the melting point is 237.4 °C.

In the case of `S=C(Oc1ccccc1)N1CCN2CCC1CC2` (as salt: hydrochloride), the melting point amounted to 272.2 °C.

`O=C(OCc1ccccc1)N1CCN2CCC1CC2` (as salt: hydrochloride) returned a melting point of 235.6 °C.

As for `COc1ccc(OC(=O)N2CCN3CCC2CC3)cc1` (as salt: hydrochloride), the melting point came to 269.7 °C.

For the compound `O=C(Oc1ccc(Oc2ccccc2)cc1)N1CCN2CCC1CC2` (as salt: hydrochloride), the melting point is 238 °C.

On to `O=C(Nc1ccc(Br)cc1)N1CCN2CCC1CC2` (as salt: HCl), for which the melting point was 228 to 231 °C.

In turn, `O=C(Oc1ccccc1C(F)(F)F)N1CCN2CCC1CC2` (as salt: hydrochloride) returned a melting point of 228.7 °C.

Compound `O=C(Oc1ccc2cc(Br)ccc2c1)N1CCN2CCC1CC2` registered a melting point of 174.2 °C.

Turning to `O=C(Oc1ccc(I)cc1)N1CCN2CCC1CC2` (as salt: hydrochloride), the melting point was determined as 280.2 °C.

For the compound `O=C(Oc1ccc2ccccc2c1)N1CCN2CCC1CC2` (as salt: hydrochloride), the melting point amounted to 255.5 °C.

On to `O=C(Oc1ccccc1Cl)N1CCN2CCC1CC2` (as salt: hydrochloride), for which the melting point is 251.2 °C.

In turn, `O=C(Oc1ccc([N+](=O)[O-])cc1)N1CCN2CCC1CC2` (as salt: hydrochloride) returned a melting point of 267.5 °C.

With `COc1cccc(OC(=O)N2CCN3CCC2CC3)c1` (as salt: hydrochloride), the melting point is 204.3 °C.

Turning to `O=C(Oc1ccc(-c2ccc(Br)cc2)cc1)N1CCN2CCC1CC2` (as salt: hydrochloride), the melting point was > 300 °C.

Compound `O=C(Oc1ccc(C(F)(F)F)cc1)N1CCN2CCC1CC2` (as salt: hydrochloride) registered a melting point of 260.7 °C.

`O=C(Oc1ccccc1)N1CCN2CCC1CC2` showed a melting point of 254.8 °C.

The compound `CC(=O)N1CCN(c2ccc(OC(=O)N3CCN4CCC3CC4)cc2)CC1` (as salt: hydrochloride) registered a melting point of 166.6 °C.

On to `O=C(Oc1ccc(-n2cncn2)cc1)N1CCN2CCC1CC2` (as salt: hydrochloride), for which the melting point stood at 253.1 °C.

`O=C(Oc1ccccc1-c1nc2ccccc2o1)N1CCN2CCC1CC2` (as salt: hydrochloride) returned a melting point of 259.9 °C.

Compound `Cc1cccc(OC(=O)N2CCN3CCC2CC3)c1` (as salt: hydrochloride) gave a melting point of 249.2 °C.

Compound `O=C(Oc1cccc(C(F)(F)F)c1)N1CCN2CCC1CC2` (as salt: hydrochloride) returned a melting point of 229.3 °C.

`O=C(Oc1cccc([N+](=O)[O-])c1)N1CCN2CCC1CC2` (as salt: hydrochloride) showed a melting point of 205.1 °C.

On to `O=C(Oc1cccc(-c2cccnc2)c1)N1CCN2CCC1CC2` (as salt: hydrochloride), for which the melting point stood at 210.2 °C.

Turning to `CC(C)(C)c1ccc(OC(=O)N2CCN3CCC2CC3)cc1` (as salt: hydrochloride), the melting point turned out to be 289.7 °C.

The compound `O=C(Oc1ccc(Cl)c(Cl)c1)N1CCN2CCC1CC2` (as salt: hydrochloride) returned a melting point of 260.2 °C.

In the case of `O=C(Oc1cccc(Oc2ccccc2)c1)N1CCN2CCC1CC2` (as salt: hydrochloride), the melting point is 204.8 °C.

The compound `COC(=O)N1CCN2CCC1CC2` (as salt: hydrochloride) yielded a melting point of 198.7 °C.

The compound `O=C(Oc1ccccc1Cc1ccccc1)N1CCN2CCC1CC2` (as salt: hydrochloride) gave a melting point of 214 °C.

In the case of `O=C(Oc1ccc(-n2ccnc2)cc1)N1CCN2CCC1CC2` (as salt: hydrochloride), the melting point is > 300 °C.

On to `O=C(Oc1ccc(F)cc1)N1CCN2CCC1CC2` (as salt: hydrochloride), for which the melting point turned out to be 276.8 °C.

For `CCCOC(=O)N1CCN2CCC1CC2` (as salt: hydrochloride), the melting point amounted to 242 °C.

In turn, `O=C(Oc1ccc(Br)c(Cl)c1)N1CCN2CCC1CC2` (as salt: hydrochloride) showed a melting point of 234.7 °C.

For the compound `Cc1ccc(OC(=O)N2CCN3CCC2CC3)cc1C` (as salt: hydrochloride), the melting point is 246 °C.

Turning to `O=C(Oc1ccccc1[N+](=O)[O-])N1CCN2CCC1CC2` (as salt: hydrochloride), the melting point was 260.4 °C.

For `CC(C)COC(=O)N1CCN2CCC1CC2` (as salt: hydrochloride), the melting point is 266.5 °C.

`Cc1cc(OC(=O)N2CCN3CCC2CC3)ccc1Br` (as salt: hydrochloride): the melting point came out at 212.5 °C.

For the compound `O=C(Oc1cccc(I)c1)N1CCN2CCC1CC2` (as salt: hydrochloride), the melting point was found to be 243.8 °C.

For `O=C(c1ccccc1)c1cccc(OC(=O)N2CCN3CCC2CC3)c1` (as salt: hydrochloride), the melting point stood at 241.7 °C.

Turning to `O=C(Oc1ccc(OCc2ccccc2)cc1)N1CCN2CCC1CC2` (as salt: hydrochloride), the melting point worked out at 278.5 °C.

The compound `O=C(Oc1ccccc1I)N1CCN2CCC1CC2` (as salt: hydrochloride) came in with a melting point of 254 °C.

For `O=C(Oc1ccc(Cl)cc1)N1CCN2CCC1CC2` (as salt: hydrochloride), the melting point turned out to be 257.5 °C.

`O=C(Oc1cccc(F)c1)N1CCN2CCC1CC2` (as salt: hydrochloride): the melting point was found to be 228.2 °C.

The compound `CCOC(=O)N1CCN2CCC1CC2` (as salt: hydrochloride) came in with a melting point of 207.7 °C.

The compound `O=C(Oc1ccccc1Br)N1CCN2CCC1CC2` (as salt: hydrochloride) gave a melting point of 267.2 °C.

Consider `O=C(Oc1cccc(Br)c1)N1CCN2CCC1CC2` (as salt: hydrochloride), for which the melting point came out at 224.5 °C.

For `CC(C)(C)c1cccc(OC(=O)N2CCN3CCC2CC3)c1` (as salt: hydrochloride), the melting point was 283.4 °C.

`O=C(Oc1ccc(C2CCCCC2)cc1)N1CCN2CCC1CC2` (as salt: hydrochloride) returned a melting point of 294.1 °C.

`N#Cc1ccc(OC(=O)N2CCN3CCC2CC3)cc1` (as salt: hydrochloride): the melting point came to 289.8 °C.

`O=C(Oc1ccc(C2CCc3ccccc32)cc1)N1CCN2CCC1CC2` (stereo not shown) (as salt: hydrochloride) registered a melting point of 168.7 °C.

On to `Cc1cc(OC(=O)N2CCN3CCC2CC3)cc(C)c1Br` (as salt: hydrochloride), for which the melting point is 239.5 °C.

`CCCCCCCCOC(=O)N1CCN2CCC1CC2` (as salt: hydrochloride) returned a melting point of 217.5 °C.

Regarding `CSc1ccc(OC(=O)N2CCN3CCC2CC3)cc1` (as salt: hydrochloride), the melting point was 235.2 °C.

Values taken from US20060014750A1, “Pharmaceutical compositions for the treatment of CNS and other disorders” (Pfizer Inc, priority 2001, published 2006).
